Read-outs that look alike come from different tables or passages of the source.
Experiments:
[1] = target: T1, HIV-1 RT-associated RNase H (Human immunodeficiency virus type 1 group M subtype B, UniProt P04585); test: RT RNase H polymerase-independent cleavage assay; type: biochemical
T1 construct: quantification of RNase H activity of reverse transcriptase (RT) enzyme
Method: The HIV-1 RT-associated RNase H activity was measured following the protocol cited by the detection and quantification of RNase H activity of reverse transcriptase (RT) enzyme with a hybrid substrate formed by a fluorescein labeled RNA annealed with Dabcyl DNA. In this assay the reaction mixture containing tris–HCl, pH 7.8, MgCl2, dithiothreitol (DTT), KCl, hybrid RNA/DNA (5′-[…]-3′-fluorescein,5′-[…]-3′-Dabcyl), and RT were incubated for 1 h at 37 °C, the reaction was stopped by the addition of EDTA, and products were measured with a Victor 3 (Perkin PerkinElmer VICTOR X3 Multilabel Counter Microplate Reader, Cridersville, OH, USA ) at 490/528 nm. The experiment was performed in triplicate. IC50 values were determined through nonlinear regression analysis, where the dose–response curves were fitted to a sigmoidal model (log(inhibitor) vs. response) using GraphPad Prism 10 software.

[2] = Cellular viability, CCK cell viability assay; type: cell-based; details: human, MRC-5 cells (normal fetal lung fibroblasts)
Method: For the evaluation of cytotoxicity, compounds 1–15 were tested in the human normal fetal lung fibroblast MRC-5 cell line using the CCK cell viability assay. Each substance was tested at three different concentrations: 0.1 μM, 1 μM, and 10 μM. […] However, since all viability percentages were above 50%, no CC50 value could be calculated.
The normal human fetal lung fibroblast MRC-5 cell line (SI , 7)was cultured under standard conditions. Compounds were tested at 10 μM, 1 μM, and 0.1 μM. Results are expressed as mean ± standard deviation (SD) from triplicate experiments.
The previously established human normal MRC‐5 (human fetal lung fibroblasts; RRID:CVCL_0440)
approved for vaccine production was obtained, stored and used in a routine manner (1,2) in the
Laboratory of Pharmacology, School of Pharmacy, Aristotle University of Thessaloniki, Greece
(Laboratory of Ioannis S. Vizirianakis, Associate Professor in Molecular Pharmacology and
Pharmacogenomics) (<25 passages was applied). […]
Cell line MRC-5 information
ID/Proper Citation: (RRID:CVCL_0440)
URL: https://web.expasy.org/cellosaurus/CVCL_0440

[3] = target: T2, recombinant HIV-1 RT (Human immunodeficiency virus type 1 group M subtype B, UniProt P04585); test: HIV-1 RT RDDP inhibitory activity (Roche colorimetric immunoassay kit); type: biochemical
T2 construct: recombinant HIV-1 RT; purchased Roche
Method: As described in our previous work, HIV-1 reverse transcriptase (RT) activity was measured using the Roche colorimetric immunoassay kit. DNA synthesis by RT was quantified after 2 h incubation at 37 °C. The reaction included PolyA:oligodT RNA template, recombinant HIV-1 RT, and various substrates, with biotin-DIG-labeled DNA detected via streptavidin-coated ELISA wells. Inhibitor activity was tested by pre-incubating RT with compounds before substrate addition. The absorbance at 405 nm was measured to calculate enzyme activity and IC50 values. […] The experiment was performed in triplicate. The data analysis for obtaining the IC50 values and standard deviation (SD)was performed using nonlinear regression analysis, specifically fitting the dose–response curves to a sigmoidal model (log(inhibitor) vs. response) using the software GraphPad Prism 10.

[4] = tested on: HIV-1; details: cited from earlier work
[5] = target: T1, HIV-1 RT-associated RNase H; set-up: method as in PMID 25092689; details: cited from earlier work

Row | Structure (SMILES) | IC50 [1] [µM] | viability at 24 h, 10 µM [2] [%] | IC50 [3] [µM] | inhibition at 4 µM [3] [%] | Inhibition of viral replication [4] | IC50 ([5]; reference inhibitor) [µM] | Inhibition of RNase H activity ([5]; selective)
1 | O=C1CSC(c2ccc(F)cc2)N1c1cccc(S(=O)(=O)Nc2nccs2)c1 (stereo not shown) [Compound 1, 3-(2-(4-Fluorophenyl)-4-oxothiazolidin-3-yl)-N-(thiazol-2-yl)benzenesulfonamide] | 14.3 ± 1.3 | > 50 | 2.23 ± 0.15 | 68.3 |  |  | 
2 | O=C1CSC(c2ccc(F)cc2)N1c1nc(-c2cccc(S(=O)(=O)N3CCCC3)c2)cs1 (stereo not shown) [Compound 2, 2-(4-Fluorophenyl)-3-(4-(3-(pyrrolidin-1-ylsulfonyl)phenyl)thiazol-2-yl)thiazolidin-4-one] | > 50 | > 50 | > 4 | 8.36 |  |  | 
3 | O=C1CSC(c2c(F)cccc2F)N1c1nc(-c2cccc(S(=O)(=O)N3CCCC3)c2)cs1 (stereo not shown) [Compound 3, 2-(2,6-Difluorophenyl)-3-(4-(3-(pyrrolidin-1-ylsulfonyl)phenyl)thiazol-2-yl)thiazolidin-4-one] | > 50 | > 50 | > 4 | 24.3 |  |  | 
4 | COc1ccc(OC)c(C2SCC(=O)N2c2nc(-c3cccc(S(=O)(=O)N4CCCC4)c3)cs2)c1 (stereo not shown) [Compound 4, 2-(2,5-Dimethoxyphenyl)-3-(4-(3-(pyrrolidin-1-ylsulfonyl)phenyl)thiazol-2-yl)thiazolidin-4-one] | 1.47 ± 0.2 | > 50 | 0.58 ± 0.07 | 86.6 |  |  | 
5 | O=C1CSC(c2ccccc2O)N1c1nc(-c2cccc(S(=O)(=O)N3CCCC3)c2)cs1 (stereo not shown) [Compound 5, 2-(2-Hydroxyphenyl)-3-(4-(3-(pyrrolidin-1-ylsulfonyl)phenyl)thiazol-2-yl)thiazolidin-4-one] | 18 ± 2.1 | > 50 | > 4 | 45.2 |  |  | 
6 | COc1ccc(OC)c(C2SCC(=O)N2c2nc(-c3ccc(S(=O)(=O)N4CCOCC4)cc3)cs2)c1 (stereo not shown) [Compound 6, 2-(2,5-Dimethoxyphenyl)-3-(4-(4-(morpholinosulfonyl)phenyl)thiazol-2-yl)thiazolidin-4-one] | 2.5 ± 0.3 | > 50 | 0.72 ± 0.06 | 81.3 |  |  | 
7 | O=C1CSC(c2ccc(F)cc2)N1c1nc(-c2ccc(S(=O)(=O)N3CCOCC3)cc2)cs1 (stereo not shown) [Compound 7, 2-(4-Fluorophenyl)-3-(4-(4-(morpholinosulfonyl)phenyl)thiazol-2-yl)thiazolidin-4-one] | > 50 | > 50 | > 4 | 12 |  |  | 
8 | O=C1CSC(c2c(F)cccc2F)N1c1nc(-c2ccc(S(=O)(=O)N3CCOCC3)cc2)cs1 (stereo not shown) [Compound 8, 2-(2,6-Difluorophenyl)-3-(4-(4-(morpholinosulfonyl)phenyl)thiazol-2-yl)thiazolidin-4-one] | > 50 | > 50 | > 4 | 33 |  |  | 
9 | O=C1CSC(c2c(Cl)cccc2Cl)N1c1nc(-c2ccc(S(=O)(=O)N3CCOCC3)cc2)cs1 (stereo not shown) [Compound 9, 2-(2,6-Dichlorophenyl)-3-(4-(4-(morpholinosulfonyl)phenyl)thiazol-2-yl)thiazolidin-4-one] | 9.01 ± 0.1 | > 50 | > 4 | 2.48 |  |  | 
10 | O=C1CSC(c2c(Cl)cccc2Cl)N1c1nc(-c2ccc(F)cc2)cs1 (stereo not shown) [Compound 10, 2-(2,6-Dichlorophenyl)-3-(4-(4-fluorophenyl)thiazol-2-yl)thiazolidin-4-one] | > 50 | > 50 | > 4 | 1.59 |  |  | 
11 | O=C1CSC(c2c(F)cccc2Cl)N1c1nc2ccc(C(F)(F)F)cc2s1 (stereo not shown) [Compound 11, 2-(2-Chloro-6-fluorophenyl)-3-(6-(trifluoromethyl)benzo[d]thiazol-2-yl)thiazolidin-4-one] | 25.4 ± 0.4 | > 50 | 0.32 ± 0.03 | 92.4 |  |  | 
12 | O=C1CSC(c2c(F)cccc2F)N1c1nc(-c2ccc(F)cc2)cs1 (stereo not shown) [Compound 12, 2-(2,6-Difluorophenyl)-3-(4-(4-fluorophenyl)thiazol-2-yl)thiazolidin-4-one] | > 50 | > 50 | > 4 | 5.86 |  |  | 
13 | N#Cc1ccc2nc(N3C(=O)CSC3c3c(F)cccc3F)sc2c1 (stereo not shown) [Compound 13, 2-(2-(2,6-Difluorophenyl)-4-oxothiazolidin-3-yl)benzo[d]thiazole-6-carbonitrile] | 16.4 ± 1.7 | 55 | > 4 | 21.4 |  |  | 
14 | O=C1CSC(c2c(F)cccc2F)N1c1nc2cc(-c3ccccc3)c(-c3ccccc3)cc2s1 (stereo not shown) [Compound 14, 2-(2,6-Difluorophenyl)-3-(5,6-diphenylbenzo[d]thiazol-2-yl)thiazolidin-4-one] | > 50 | > 50 | > 4 | 7.9 |  |  | 
15 | O=C1CSC(c2c(Cl)cccc2Cl)N1c1nc2ccc(C(F)(F)F)cc2s1 (stereo not shown) [Compound 15, 2-(2,6-Dichlorophenyl)-3-(6-(trifluoromethyl)benzo[d]thiazol-2-yl)thiazolidin-4-one] | > 50 | 57.9 | > 4 | 8.52 |  |  | 
16 | Cc1ccnc2c1NC(=O)c1cccnc1N2C1CC1 [Nevirapine, reference compound] |  |  |  | 93.8 |  |  | 
17 | CCOC(=O)C(=O)CC(=O)/C=C/c1cccn1Cc1ccccc1Cl [RDS1759] |  |  |  |  | low micromolar range | 7.3 ± 0.1 | low micromolar range
